Measurements from patent publication US20100152150A1, “THE APPLICATION OF MARINE STEROID IN PREPARING THE MEDICINE OF TREATING NEURONS DAMAGING” (priority 2006, published 2010).

Assays:
[1] = test system: rat cerebellar granule neurons (CGNs); assay: Hypoxia/reoxygenation (H/R) induced death of in vitro cultured cerebellar granule neurons; type: cell-based; conditions: for CGNs morphology under inverted fluorescence microscope: pre-treated 3 h with 10 μM MK801 or 12 μM YC-1 or 12 μM YC-2, then 3 h hypoxia and 24 h reoxygenation
Experimental: 1) Culture of Rat Cerebellar Granule Neurons (CGNs)
According to Yan, etc, the neurons were prepared as follows:
(1) A clean 7-8 d SD rat weighing about 15-20 g was taken and the cerebella was separated under sterile condition.
(2) The meninges and vessels were gotten rid of in Kreb's anatomy solution (Ca^2+ and Mg^2+ free).
(3) The cerebella was sheared into pieces of 1 mm^3 with ophthalmic scissors.
(4) Digested in 0.25 g/L trypsin solution for 15 min at 37.
(5) The digestion was stopped with solution containing 0.5 g/L trypsin inhibitor and 0.05 g/L Dnase I and pipetted up and down to get single cell suspension.
(6) The single cell suspension was centrifuged at 200 g for 5 min, the precipitation was rinsed once with rinse solution.
(7) Span down again at 200 g for 5 min, the supernatant was discarded.
(8) The cell pellet was diluted to cell density of 1.5-1.8×10^6 cells/ml with BME medium containing 10% (v/v) FBA and 25 mM KCl.
(9) They were inoculated into cell culture dishes pre-coated with polylysine and incubated at 370 incubator with 5% CO2.
(10) Twenty-four hours after inoculation, 10 μmol/L Ara-C was added to inhibit non-neuron cells' growth and proliferation and to make the purity of CGNs above 95%.
(11) Glucose was added to 5 mM on day 7 incubation to supplement energy needed by cell metabolism.
(12) The experiment on day 8.
2). Establishment of CGNs Hypoxia/Reoxygenation (H/R) Injury Model
Referred to Seko (Seko Y, To be K, Ueki K, et al. Hypoxia and hypoxia/reoxygenation activate Raf-1, mitogen-activated protein kinase kinase, mitogen-activated protein kinases, and S6 kinase in cultured rat cardiac myocytes. Circ Res. 1996 January; 78(1):82-90) etc for the establishment method:
(1) On day 8, the treated CGNs were put in airtight box with oxygen consumption reagent and indicator and incubated at 37° for 3 h.
(2) The cells were transferred to 370 incubator with 5% CO2 for reoxygenation treatment.
(3). Cell morphological observation and neuron viability measurement
The following were done referring to Yan (Yan G M, Irwin R P, Lin S Z, et al. Diphenylhydantoin induces apoptotic cell death of cultured rat cerebellar granule neurons. J Pharmacol Exp Ther, 1995, 274(2): 983-8) et al.:
(1) CGNs were cultured in 35 mm dishes, on day 8, the medium was removed after various factors treatment, the cells were rinsed twice with 4 PBS containing Ca^2+ and Mg^2+.
(2) The cells were fixed with 40 g/L paraformaldehyde (40, dissolved in PBS) for 10 min.
(3) The fixation solution was removed, the cells were rinsed twice with distilled water, air dried at 4°.
(4) The cell morphological change was observed and randomly photographed under inverted fluorescence microscope (Olympus).

[2] = test system: SD rats with permanent middle cerebral artery occlusion (MCAO); assay: MCAO induced rat cerebral ischemia model; type: in vivo
Experimental: Method: Preparation of Rat Middle Cerebral Artery Occlusion (MCAO) Model
25 healthy male SD rats were divided into 3 groups randomly: YC-1 group (n=11): 10 min, 6 h, 24 h and 7 d after occluding the middle cerebral artery, 12 mg/Kg YC-1 was continuously injected intraperitoneally. DMSO group (n=11): same volume of DMSO (1 ml/Kg) was injected in the same way. Sham group (n=3): just very short intraluminal thread was inserted and didn't occlude the MCA.
The following method was a modification of Zea Longa's method (Longa E Z, Weinstein P R, Carlson S, Cummins R. Reversible middle cerebral artery occlusion without craniectomy in rats. Stroke, 1989, 20: 84-91).
(1) The rats drinked freely but fasted one night before the operation.
(2) 10 min before anesthesia, atropine sulfate (0.5 mg/Kg) was intraperitoneally (ip) injected.
(3) Narcotized the rat with ip injected 10% chloral hydrate, 3.5 ml anesthetic per Kg rat; The areflexia of hindlimb retraction and corneal were used as anesthesia index. […]
(7) Rectum temperature was measured by using Meikangti electronic temperature measure instrument the whole process and it was strictly controlled at 36.5-37.5°. […]

[3] = test system: rat cerebellar granule neurons (CGNs); assay: Glutamic acid (Glu) induced death of in vitro cultured cerebellar granule neurons; type: cell-based
From the text: (1) Isolatation and primary culture of rat CGNs.
(2) Morphology observation of neuron cell body and processes under phase contrast microscopy.
(3) Analysis of neuronal metabolic activity and viability using fluorescein diacetate (FDA) staining.

[4] = test system: rat cerebellar granule neurons (CGNs); assay: Repolarization (low potassium, LK) induced death of in vitro cultured cerebellar granule neurons; type: cell-based
Experimental: The methods for rat CGNs cell culture, cellular morphologic observation and neuronal viability measurement were the same as above. Then check the in vitro cultured cerebellar granule neurons death through agarose gel electrophoresis according to reference:
(1) CGNs in […] dishes were inoculated.
(2) On day 8, 24 h after adding various medicines, the medium was removed, the cells were rinsed twice with PBS.
(3) The collected cells were spun down with a low temperature high speed centrifuge (Biofuge22R, Heraeus, Germany) at 5000 rpm, 4° for 5 min.
(4) the cell pellet was resuspended with 600 μl buffer containing 10 mmol/L Tris-HCl, 10 mmol/L EDTA and 2 g/L Triton X-100 (pH 7.5) and incubated for 15 min.
(6) The supernatant was extracted once with equal volume of phenol and spun down.
(7) The supernatant was extracted once with equal volume of phenol-chloroform (1:1), spun down.
(8) The supernatant was taken, 300 mmol/L Sodium Acetate and equal volume of isopropanol were added and precipitated for overnight.
(9) The pellet was spun down and rinsed 2-3 times with 70% ethanol.
(10) After drying, some TE (Tris 10 mmol L^−1, EDTA 1.0 mmol L^−1, pH 7.4, and 0.6 g·L^−1 RNase A) were added and incubated at 37° for 30 min.
(11) The samples were analyzed with 20 g/L agarose gel electrophoresis for 1 h.
(12) Dyed with ethidium bromide and photographed under UV light.

[5] = test system: New Zealand white rabbits with spinal cord ischemia; assay: Abdominal aorta clipping induced rabbit spinal cord ischemia model; type: in vivo; conditions: 8 mg/Kg intravenous 30 min before ischemia
Experimental: Method: Preparation of spinal cord ischemia model.
24 male New Zealand white rabbits were divided evenly into 3 groups (n=8):
YC-1 group: 30 min before spinal cord ischemia, 8 mg/Kg YC-1 was intravenous injected through the rabbit's ear. DMSO group: same volume of DMSO (1 ml/Kg) was injected in the same way.
Sham group: the abdominal aorta was exposed but wasn't clipped.
Referring to Johnson etc, the model was prepared as follows:
(1) The rabbits drinked freely but fasted one night before the operation.
(2) The rabbit was anesthetized by injecting 3% sodium pentobarbital (30 mg/Kg) by ear intravenous. On the other side of the ear a vein-detaining needle (24 G) was set for medicine and other fluid infusion.
(3) An artery-detaining needle (24 G) was set in the right ear artery for monitoring the proximal arterial pressure and blood sampling during the operation.
(4) An artery-detaining needle (24 G) was set in a femoral artery for monitoring the distal arterial pressure during the operation.
(5) The rabbit was supinely fixed and incised at the median abdomen; the abdominal aorta was exposed.
(6) Injected heparin (150 U/Kg) through the vein-detaining needle, then the abdominal aorta was clipped at the 0.5-1.0 cm spot below origin of the left renal artery to cause spinal cord ischemia.
(7) Once the abdominal aorta was blocked, the distal arterial pressure decreased immediately and the femoral arterial pulsation disappeared.
(8) The clip was removed 20 min after ischemia and the abdomen was sutured.
(9) Then intramuscularly injected 40,000 U gentamicin, the rabbit was returned back to cage and observed for 48 h.
(10) The proximal arterial pressure, distal arterial pressure and heart rate (Spacelab, US) were continuously monitored during the operation. Rectum temperature was maintained at 38.5±0.5° by using heating pad and roasting lamp.
(11) Blood gas (AVL-2, Switzerland) and glucose (One Touch II, USA) were monitored by ear artery blood sampling 10 min before ischemia, 10 min after ischemia and 10 min after reperfusion.

Compound	viability at 10 µM ([1]; Rattus norvegicus, Neuron, 10 μM MK801 or 12 μM YC-1 or 12 μM YC-2, then H/R, H/R alone 16.56±3.21%, read-out: neuronal viability (FDA dye)) [%]	CGNs morphology under inverted fluorescence microscope [1]	brain tissue colour and morphology by visual inspection ([2]; rat MCAO, 12 mg/Kg intraperitoneally, DMSO group showed obvious pallor and swelling)	infarct size (TTC dye) ([2]; rat permanent MCAO, 12 mg/Kg YC-1 intraperitoneally at 10 min, 6 h, 24 h and 7 d after occlusion, DMSO group 62±8%) [%]	Glu induced CGNs apoptosis (phase contrast microscopy) ([3]; 12 μM added 1 h before 150 μM Glu, observed 24 h later)	CGNs' viability (FDA staining) ([3]; 12 μM, 150 μM Glu 24 h, Glu control group 29.5±8.23%) [%]	CGNs morphology (cell bodies and processes) ([4]; 12 μM added 3 h before and at change to 5 mM KCl serum free medium, 24 h)	CGNs survived (FDA staining) ([4]; 12 μM added 3 h before and at change to 5 mM KCl serum free medium, 24 h, low potassium alone 40.2±14.04%) [%]	DNA fragments produced from LK induced CGNs apoptosis (agarose gel electrophoresis) ([4]; FIG. 18)	rabbits able to stand (hindlimb function) ([5]; rabbit spinal cord ischemia 20 min, n=8, no rabbit in DMSO group could stand)	neurological function score ([5]; rabbit spinal cord ischemia, each observation time point, versus DMSO group, p<0.05)	lumbar spinal cord injury (histopathological examination) ([5]; rabbit spinal cord ischemia, versus DMSO group)	number of normal spinal cord anterior horn neurons ([5]; rabbit spinal cord ischemia, versus DMSO group, p<0.01)	neuronal viability (FDA dye) ([1]; 10 μM MK801 or 12 μM YC-1 or 12 μM YC-2, then H/R, H/R alone 16.56±3.21%) [%]	nuclear morphology (Hoechst33258 dye) ([1]; 12 μM, then H/R treatment)
C[C@]12N[C@H](Cc3ccccc31)c1ccccc12 [MK801, reference compound]	86.7 ± 3.21	Most CGNs cell body kept intact, plump and lucent													
C=C(CC[C@@H](C)[C@H]1CC[C@H]2[C@@H]3C[C@@H](O)[C@@]4(O)C[C@@H](O)CC[C@]4(CO)[C@H]3CC[C@]12C)C(C)C [YC-1, 24-methylene-cholest-3β,5α,6β,19-tetrol]		Most CGNs cell body kept intact, plump and lucent	no obvious pallor and swelling	32±11	obviously inhibited Glu induced CGNs apoptosis	92.6±2.59	most CGNs kept intact cell bodies and processes	94.3±14.02	can reduce DNA fragments	Six rabbits in the CPA (YC-1) group could stand	obviously higher than that in DMSO group	obviously relieved	increased evidently	84.29±1.26	Most CGNs showed normal nuclear morphology and even chromatin distribution
